# Data from ChEMBL document CHEMBL5463729, “Data for DCP probe BAY 1753011” (2023).
# Tests used:
# Conditions in all cases: Compound concentration 10.0 uM
# [1] = target: Ephrin type-A receptor 8 (Homo sapiens) (UniProt P29322); assay: Inhibition of EphA8(h) at 10.0 µM in the Eurofins Kinase panel
# [2] = target: Serine/threonine-protein kinase MARK1 (Homo sapiens) (UniProt Q9P0L2); assay: Inhibition of MARK1(h) at 10.0 µM in the Eurofins Kinase panel
# [3] = target: T1, 5-hydroxytryptamine receptor 1A (Homo sapiens) (UniProt P08908)
# T1 sequence (whole entry): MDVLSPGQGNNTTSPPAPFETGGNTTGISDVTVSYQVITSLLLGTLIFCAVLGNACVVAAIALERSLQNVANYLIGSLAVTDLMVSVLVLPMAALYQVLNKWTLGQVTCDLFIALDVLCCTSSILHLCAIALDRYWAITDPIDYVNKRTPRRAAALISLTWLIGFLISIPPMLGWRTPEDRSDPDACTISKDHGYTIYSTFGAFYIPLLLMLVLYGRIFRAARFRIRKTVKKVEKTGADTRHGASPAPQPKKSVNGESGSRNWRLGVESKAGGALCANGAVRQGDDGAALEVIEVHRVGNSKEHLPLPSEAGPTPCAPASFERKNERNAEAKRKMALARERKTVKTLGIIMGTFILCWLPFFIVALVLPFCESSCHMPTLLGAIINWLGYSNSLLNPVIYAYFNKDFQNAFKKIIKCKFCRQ
# [4] = target: Rhodopsin kinase GRK1 (Homo sapiens) (UniProt Q15835); assay: Inhibition of GRK1(h) at 10.0 µM in the Eurofins Kinase panel
# [5] = target: Phosphatidylinositol 4,5-bisphosphate 3-kinase catalytic subunit gamma isoform (Homo sapiens) (UniProt P48736); assay: Inhibition of PI3 Kinase (p120g)(h) at 10.0 µM in the Eurofins Kinase panel
# [6] = target: Serine/threonine-protein kinase N2 (Homo sapiens) (UniProt Q16513); assay: Inhibition of PRK2(h) at 10.0 µM in the Eurofins Kinase panel
# [7] = target: Protein kinase C epsilon type (Homo sapiens) (UniProt Q02156); assay: Inhibition of PKCepsilon(h) at 10.0 µM in the Eurofins Kinase panel
# [8] = target: 5-hydroxytryptamine receptor 2B (Homo sapiens) (UniProt P41595)
# [9] = target: Serine/threonine-protein kinase Chk1 (Homo sapiens) (UniProt O14757); assay: Inhibition of CHK1(h) at 10.0 µM in the Eurofins Kinase panel
# [10] = target: D(1A) dopamine receptor (Homo sapiens) (UniProt P21728)
# [11] = target: Adenosine receptor A3 (Homo sapiens) (UniProt P0DMS8)
# [12] = target: Cyclin-dependent kinase 14/Cyclin-Y (Homo sapiens) (UniProt O94921+Q8ND76); assay: Inhibition of CDK14/cyclinY(h) at 10.0 µM in the Eurofins Kinase panel; format: protein-complex assay
# [13] = target: Proto-oncogene tyrosine-protein kinase ROS (Homo sapiens) (UniProt P08922); assay: Inhibition of Ros(h) at 10.0 µM in the Eurofins Kinase panel
# [14] = target: Myosin light chain kinase 2, skeletal/cardiac muscle (Homo sapiens) (UniProt Q9H1R3); assay: Inhibition of MYLK2(h) at 10.0 µM in the Eurofins Kinase panel
# [15] = target: Serine/threonine-protein kinase PLK2 (Homo sapiens) (UniProt Q9NYY3); assay: Inhibition of Snk(h) at 10.0 µM in the Eurofins Kinase panel
# [16] = target: Interferon-induced, double-stranded RNA-activated protein kinase (Homo sapiens) (UniProt P19525); assay: Inhibition of PKR(h) at 10.0 µM in the Eurofins Kinase panel
# [17] = target: T2, Alpha-2B adrenergic receptor (Homo sapiens) (UniProt P18089)
# T2 sequence (whole entry): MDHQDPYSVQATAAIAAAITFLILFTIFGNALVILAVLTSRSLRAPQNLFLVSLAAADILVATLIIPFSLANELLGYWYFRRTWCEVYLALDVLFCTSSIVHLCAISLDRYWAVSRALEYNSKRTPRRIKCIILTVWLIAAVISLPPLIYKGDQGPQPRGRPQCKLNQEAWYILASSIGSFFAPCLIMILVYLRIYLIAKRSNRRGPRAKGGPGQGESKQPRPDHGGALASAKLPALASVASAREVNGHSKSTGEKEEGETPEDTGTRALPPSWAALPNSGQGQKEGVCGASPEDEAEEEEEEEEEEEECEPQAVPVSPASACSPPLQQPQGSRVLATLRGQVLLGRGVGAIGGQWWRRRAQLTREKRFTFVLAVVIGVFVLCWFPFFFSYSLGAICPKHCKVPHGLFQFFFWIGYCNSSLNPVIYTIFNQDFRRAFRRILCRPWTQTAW
# [18] = target: Ephrin type-A receptor 7 (Homo sapiens) (UniProt Q15375); assay: Inhibition of EphA7(h) at 10.0 µM in the Eurofins Kinase panel
# [19] = target: Mitogen-activated protein kinase kinase kinase kinase 5 (Homo sapiens) (UniProt Q9Y4K4); assay: Inhibition of MAP4K5(h) at 10.0 µM in the Eurofins Kinase panel
# [20] = target: Sodium-dependent noradrenaline transporter (Homo sapiens, UniProt P23975)
# [21] = target: Dual specificity protein kinase CLK3 (Homo sapiens) (UniProt P49761); assay: Inhibition of CLK3(h) at 10.0 µM in the Eurofins Kinase panel
# [22] = target: Casein kinase I isoform alpha (Homo sapiens) (UniProt P48729); assay: Inhibition of CK1alpha(h) at 10.0 µM in the Eurofins Kinase panel
# [23] = target: TGF-beta receptor type-2 (Homo sapiens) (UniProt P37173); assay: Inhibition of TGFBR2(h) at 10.0 µM in the Eurofins Kinase panel
# [24] = target: Dual specificity mitogen-activated protein kinase kinase 6 (Homo sapiens) (UniProt P52564); assay: Inhibition of MKK6(h) at 10.0 µM in the Eurofins Kinase panel
# [25] = target: Tau-tubulin kinase 1 (Homo sapiens) (UniProt Q5TCY1); assay: Inhibition of TTBK1(h) at 10.0 µM in the Eurofins Kinase panel
# Sodium-dependent noradrenaline transporter, sequence (P23975 whole entry): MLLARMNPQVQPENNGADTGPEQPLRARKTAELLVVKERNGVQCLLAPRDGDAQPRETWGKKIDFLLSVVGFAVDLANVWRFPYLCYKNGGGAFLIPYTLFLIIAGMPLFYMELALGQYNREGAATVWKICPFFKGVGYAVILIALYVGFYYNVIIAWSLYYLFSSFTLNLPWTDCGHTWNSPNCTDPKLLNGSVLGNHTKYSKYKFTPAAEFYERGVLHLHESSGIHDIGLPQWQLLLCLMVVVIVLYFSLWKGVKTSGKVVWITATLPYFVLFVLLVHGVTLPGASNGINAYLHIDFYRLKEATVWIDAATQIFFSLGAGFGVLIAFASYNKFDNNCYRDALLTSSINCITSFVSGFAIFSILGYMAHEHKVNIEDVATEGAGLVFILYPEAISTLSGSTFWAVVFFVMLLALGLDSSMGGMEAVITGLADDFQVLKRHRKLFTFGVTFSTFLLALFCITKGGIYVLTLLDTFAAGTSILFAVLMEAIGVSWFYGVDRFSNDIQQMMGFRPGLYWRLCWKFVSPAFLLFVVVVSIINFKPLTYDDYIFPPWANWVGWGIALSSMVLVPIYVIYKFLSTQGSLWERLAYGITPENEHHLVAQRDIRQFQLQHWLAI
# 5-hydroxytryptamine receptor 2B (Homo sapiens), sequence (P41595 whole entry): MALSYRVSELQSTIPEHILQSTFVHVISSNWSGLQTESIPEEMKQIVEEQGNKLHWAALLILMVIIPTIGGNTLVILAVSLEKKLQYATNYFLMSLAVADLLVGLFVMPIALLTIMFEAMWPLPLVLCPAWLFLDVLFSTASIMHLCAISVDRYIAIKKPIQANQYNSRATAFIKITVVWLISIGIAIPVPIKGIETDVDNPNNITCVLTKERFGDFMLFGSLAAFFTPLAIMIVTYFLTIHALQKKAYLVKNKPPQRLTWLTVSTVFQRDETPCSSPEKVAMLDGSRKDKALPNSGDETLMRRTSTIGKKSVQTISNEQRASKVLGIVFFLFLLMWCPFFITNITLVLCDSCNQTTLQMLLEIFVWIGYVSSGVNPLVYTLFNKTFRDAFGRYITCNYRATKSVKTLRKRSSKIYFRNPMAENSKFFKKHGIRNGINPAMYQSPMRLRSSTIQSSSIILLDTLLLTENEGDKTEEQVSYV
# Adenosine receptor A3 (Homo sapiens), sequence (P0DMS8 whole entry): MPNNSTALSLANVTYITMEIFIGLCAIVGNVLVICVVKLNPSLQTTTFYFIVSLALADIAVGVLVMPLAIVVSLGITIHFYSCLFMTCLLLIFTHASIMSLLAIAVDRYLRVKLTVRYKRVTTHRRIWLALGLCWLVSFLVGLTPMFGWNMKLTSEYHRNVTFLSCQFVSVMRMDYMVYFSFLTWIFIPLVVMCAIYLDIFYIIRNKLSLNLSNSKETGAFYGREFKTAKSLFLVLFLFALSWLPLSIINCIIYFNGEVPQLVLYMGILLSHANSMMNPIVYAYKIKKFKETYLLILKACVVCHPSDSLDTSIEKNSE
# Dual specificity mitogen-activated protein kinase kinase 6 (Homo sapiens), sequence (P52564 whole entry): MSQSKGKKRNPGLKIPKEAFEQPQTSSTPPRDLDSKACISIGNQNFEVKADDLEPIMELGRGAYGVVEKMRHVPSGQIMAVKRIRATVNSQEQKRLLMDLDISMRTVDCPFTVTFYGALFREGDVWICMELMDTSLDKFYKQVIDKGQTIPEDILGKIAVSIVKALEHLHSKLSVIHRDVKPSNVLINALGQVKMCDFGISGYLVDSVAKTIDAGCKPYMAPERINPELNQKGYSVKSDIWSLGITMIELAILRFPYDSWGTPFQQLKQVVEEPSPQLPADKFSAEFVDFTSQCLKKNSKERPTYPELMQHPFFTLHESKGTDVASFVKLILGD
# Dual specificity protein kinase CLK3 (Homo sapiens), sequence (P49761 whole entry, looked up, canonical isoform): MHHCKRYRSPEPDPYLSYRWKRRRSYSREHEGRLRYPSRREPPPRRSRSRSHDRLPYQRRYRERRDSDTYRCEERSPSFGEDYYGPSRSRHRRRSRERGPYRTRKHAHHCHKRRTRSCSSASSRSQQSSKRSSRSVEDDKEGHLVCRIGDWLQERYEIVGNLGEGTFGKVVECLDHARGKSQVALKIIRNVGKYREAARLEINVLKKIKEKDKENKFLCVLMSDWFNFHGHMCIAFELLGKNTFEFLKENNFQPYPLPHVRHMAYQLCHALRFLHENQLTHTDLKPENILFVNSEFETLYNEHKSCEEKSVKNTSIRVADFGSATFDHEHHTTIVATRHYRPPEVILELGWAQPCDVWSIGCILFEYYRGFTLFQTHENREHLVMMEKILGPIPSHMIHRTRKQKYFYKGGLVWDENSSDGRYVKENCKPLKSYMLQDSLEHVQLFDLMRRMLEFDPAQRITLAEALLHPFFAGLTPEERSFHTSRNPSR
# Casein kinase I isoform alpha (Homo sapiens), sequence (P48729 2-337 limits assumed): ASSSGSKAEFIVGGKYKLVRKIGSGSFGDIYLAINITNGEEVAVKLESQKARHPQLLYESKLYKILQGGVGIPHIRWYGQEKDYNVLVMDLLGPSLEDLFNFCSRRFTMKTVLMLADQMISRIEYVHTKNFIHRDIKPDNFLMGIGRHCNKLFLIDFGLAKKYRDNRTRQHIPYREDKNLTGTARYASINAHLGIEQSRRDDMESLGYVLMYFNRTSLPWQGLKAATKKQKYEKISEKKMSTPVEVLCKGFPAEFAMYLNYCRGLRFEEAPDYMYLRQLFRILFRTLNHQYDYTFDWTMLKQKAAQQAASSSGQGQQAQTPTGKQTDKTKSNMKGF
# Rhodopsin kinase GRK1 (Homo sapiens), sequence (Q15835 whole entry, canonical isoform): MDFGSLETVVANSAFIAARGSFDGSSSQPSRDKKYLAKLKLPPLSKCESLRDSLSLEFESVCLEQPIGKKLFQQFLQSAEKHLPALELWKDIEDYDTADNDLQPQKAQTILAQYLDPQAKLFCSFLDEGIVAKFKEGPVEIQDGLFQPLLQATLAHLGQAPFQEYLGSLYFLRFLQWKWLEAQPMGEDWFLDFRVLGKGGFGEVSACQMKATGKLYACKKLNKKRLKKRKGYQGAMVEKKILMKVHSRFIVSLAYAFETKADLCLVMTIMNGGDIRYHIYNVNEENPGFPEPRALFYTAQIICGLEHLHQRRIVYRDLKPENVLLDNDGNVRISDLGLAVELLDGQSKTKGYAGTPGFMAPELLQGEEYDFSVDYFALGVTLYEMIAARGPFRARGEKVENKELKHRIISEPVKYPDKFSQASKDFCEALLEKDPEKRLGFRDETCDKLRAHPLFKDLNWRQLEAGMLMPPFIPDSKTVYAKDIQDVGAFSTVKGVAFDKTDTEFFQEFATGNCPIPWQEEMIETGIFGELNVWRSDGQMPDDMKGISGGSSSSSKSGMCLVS
# Serine/threonine-protein kinase Chk1 (Homo sapiens), sequence (O14757 whole entry): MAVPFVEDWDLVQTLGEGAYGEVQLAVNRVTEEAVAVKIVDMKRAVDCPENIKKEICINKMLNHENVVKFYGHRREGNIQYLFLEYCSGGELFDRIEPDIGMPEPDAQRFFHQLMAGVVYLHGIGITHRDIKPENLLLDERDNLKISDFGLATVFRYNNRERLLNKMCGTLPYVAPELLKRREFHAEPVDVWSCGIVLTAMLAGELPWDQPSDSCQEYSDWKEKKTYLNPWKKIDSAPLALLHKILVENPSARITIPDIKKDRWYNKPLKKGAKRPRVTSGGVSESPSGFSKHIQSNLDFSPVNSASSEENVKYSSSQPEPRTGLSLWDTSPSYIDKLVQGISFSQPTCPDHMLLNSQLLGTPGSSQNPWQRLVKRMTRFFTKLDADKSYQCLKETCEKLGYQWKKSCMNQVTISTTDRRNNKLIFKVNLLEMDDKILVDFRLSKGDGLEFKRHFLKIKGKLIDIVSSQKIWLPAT
# Ephrin type-A receptor 7 (Homo sapiens), sequence (Q15375 28-998 limits assumed): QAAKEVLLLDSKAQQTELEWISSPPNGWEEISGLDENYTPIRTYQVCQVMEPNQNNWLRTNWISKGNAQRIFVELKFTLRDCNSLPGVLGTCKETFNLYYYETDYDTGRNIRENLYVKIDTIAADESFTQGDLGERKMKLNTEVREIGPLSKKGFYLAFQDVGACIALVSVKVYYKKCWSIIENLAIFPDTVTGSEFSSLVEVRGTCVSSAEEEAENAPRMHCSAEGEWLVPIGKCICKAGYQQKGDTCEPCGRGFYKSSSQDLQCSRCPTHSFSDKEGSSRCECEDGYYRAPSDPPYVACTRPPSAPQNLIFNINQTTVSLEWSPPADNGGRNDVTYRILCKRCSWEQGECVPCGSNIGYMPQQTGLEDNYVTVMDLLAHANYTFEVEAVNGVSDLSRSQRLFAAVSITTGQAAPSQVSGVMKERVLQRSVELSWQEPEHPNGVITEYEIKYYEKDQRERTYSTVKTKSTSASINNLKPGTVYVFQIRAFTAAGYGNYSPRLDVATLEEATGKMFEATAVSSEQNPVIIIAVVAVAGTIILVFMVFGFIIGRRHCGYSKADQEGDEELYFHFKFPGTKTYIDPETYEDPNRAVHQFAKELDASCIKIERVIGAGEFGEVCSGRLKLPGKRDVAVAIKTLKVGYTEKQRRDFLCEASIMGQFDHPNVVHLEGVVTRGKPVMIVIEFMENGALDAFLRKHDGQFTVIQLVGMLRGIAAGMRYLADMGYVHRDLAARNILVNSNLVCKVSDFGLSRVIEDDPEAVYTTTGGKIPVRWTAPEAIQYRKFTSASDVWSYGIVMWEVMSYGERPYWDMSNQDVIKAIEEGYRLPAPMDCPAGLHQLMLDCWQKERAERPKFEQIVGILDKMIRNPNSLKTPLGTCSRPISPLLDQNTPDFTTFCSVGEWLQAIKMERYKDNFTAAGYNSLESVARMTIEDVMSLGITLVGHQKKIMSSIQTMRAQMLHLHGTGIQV
Compound,inhibition [1] [%],inhibition [2] [%],inhibition [3] [%],inhibition [4] [%],inhibition [5] [%],inhibition [6] [%],inhibition [7] [%],inhibition [8] [%],inhibition [9] [%],inhibition [10] [%],inhibition [11] [%],inhibition [12] [%],inhibition [13] [%],inhibition [14] [%],inhibition [15] [%],inhibition [16] [%],inhibition [17] [%],inhibition [18] [%],inhibition [19] [%],inhibition [20] [%],other results
O=c1n(Cc2cncn2-c2cccc(Cl)c2)nc(-c2ccc(Cl)cc2)n1C[C@H](O)C(F)(F)F,3.67,2.63,33.3,-8.45,9.44,27.4,11,7.98,1.73,-6,7,-0.16,3.23,3.49,0.93,-3.03,0.1,3.37,-1.83,11,inhibition [21]: 1.4%; inhibition [22]: -1.11%; inhibition [23]: 8.26%; inhibition [24]: 5.77%; inhibition [25]: -6.92%
C[C@H](O)c1nc(Cn2nc(-c3ccc(Cl)cc3)n(C[C@H](O)C(F)(F)F)c2=O)nn1-c1cccc(Cl)c1 [PECAVAPTAN],4.55,0.06,46.8,6.58,14.1,7.5,19.1,13.1,2.42,1,16,-0.61,-1.01,3.01,-4.51,1.32,16.1,4.11,6.21,71.2,inhibition [21]: -0.38%; inhibition [22]: -1.65%; inhibition [23]: 8.85%; inhibition [24]: 7.34%; inhibition [25]: -7.82%
